Test [1] deals with phosphorylated ERK in MIA PaCa2 cells with Kras G12C mutation. In words: p-ERK HTRF assay for cells (Test Example 2). Type of test: cell-based, human. In a few lines:
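MIA PaCa2 cells (2.5E4/well, seeded overnight) treated 2 h with compound in a 3.16-fold series at 0.1% DMSO. Cells lysed 30 min; p-ERK read by HTRF after 4 h antibody incubation. Inhibition relative to DMSO and blank; IC50 by four-parameter fit.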
Background: In TR-FRET formats the signal depends on donor and acceptor labels being close together.

The test system of test [2] is A549 cells with Kras G12S mutation. As to the kind of experiment: Cell proliferation inhibition experiment, 3D spheroid, CellTiter-Glo (Test Example 1). As to conditions: 5 days. It is filed as cell-based, human. In a few lines: (§1)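 NCI-H358 (800 cells/well) and A549 (400 cells/well) grown overnight as 3D spheroids in 2% FBS medium, then exposed to compound dilution series (3.16-fold, 0.1% DMSO) for 5 days. CellTiter-Glo luminescence read; inhibition relative to DMSO and blank, IC50 by four-parameter fit.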

The test system of test [3] is NCI-H358 cells with Kras G12C mutation. Described as above. It is filed as cell-based, human. Conditions: 5 days. In a few lines:
as §1

Test [4] has as its system MIA PaCa-2 cells with Kras G12C mutation. In words: Cell proliferation inhibition experiment, 3D spheroid, CellTiter-Glo (Test Example 3). As to conditions: 5 days, read-out: MIA-PaCa2 IC50. Type of test: cell-based, human. An outline of the steps:
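MIA PaCa-2 spheroids (200 cells/well) were formed overnight, then exposed for 5 days to compounds in 3.16-fold dilutions at 0.1% DMSO. Viability was read by CellTiter-Glo luminescence, and inhibition was normalised to DMSO control and medium blank. IC50 came from a four-parameter fit.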
Background: In ATP-based viability assays light output follows the ATP content of the culture.

For another test, the target named is KRas G12C (Homo sapiens (Human), UniProt P01116, G12C). As to the kind of experiment: Nucleotide exchange assay (NEA)-HTRF, SOS1 catalyzed displacement of GDP by GTP (Test Example 4). Type of test: biochemical. Here is the method: The effects of compounds on SOS1 catalyzed displacement of GDP by GTP on KRas proteins was examined by homogeneous time-resolved fluorescence (HTRF). 30 μM 6×his labeled KRas G12C recombinant protein and 80 μM fluorochrome DY647 labeled GDP were co-incubated in a labeling buffer (1 mM DTT, 7.5 mM EDTA, 25 mM Tris-HCl, 45 mM NaCl) at 20° C. away from light for 2 hours. Protein quantification was performed after purification on the NAP-5 column to determine the concentration of KRas G12C-GDP.
Sequence of KRas G12C (P01116-2 other isoform, or with tags, fused parts or gaps G12C): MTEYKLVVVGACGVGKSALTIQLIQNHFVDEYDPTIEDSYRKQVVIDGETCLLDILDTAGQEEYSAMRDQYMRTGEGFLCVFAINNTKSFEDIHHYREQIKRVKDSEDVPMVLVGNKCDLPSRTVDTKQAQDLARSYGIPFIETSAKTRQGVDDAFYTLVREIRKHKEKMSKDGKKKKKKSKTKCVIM
1000× stock solutions of compounds at a concentration gradient of 3.16 were prepared by using DMSO, and diluted 250 times by a reaction buffer (40 mM N-2-hydroxyethylpiperazine-N-2-ethane sulfonic acid (HEPES), 10 mM MgCl2, 1 mM DTT, 0.002% Triton X-100) into 4× stock solutions of compounds. KRas G12C-GDP/Tb working solution (40 nM KRas G12C-GDP, 1×anti-his Tb) and SOS1/GTP working solution (0.2 μM SOS1, 200 μM GTP) were prepared by using the reaction buffer.
5 μl of 4×stock solution of a compound and 10 μl of KRas G12C-GDP/T working solution were added to each well of 96-well plate with white unclear bottom, and 5 μl of reaction buffer was added to the well of control group in stead of the 4×stock solution of a compound. After incubation at 20° C. away from light for 15 minutes, 5 μl of SOS1/GTP working solution was added and incubated at 20° C. away from light for 2 hours, and then a value of fluorescence intensity was read (excitation wavelength: 320 nm, and emission wavelengths: 615 nm and 665 nm). Besides, group TO was established with 10 μl of the reaction buffer and 10 μl of the KRas G12C-GDP/Tb working solution, and the value of fluorescence intensity was directly read. A relative light unit (RLU) was calculated by the following equation: RLU=(665 nm signal/615 nm signal)×10^4; and the inhibition rate (IR) of the compound was calculated by the following equation: IR (%)=(RLUcompound−RLUcontrol)/(RLUT0−RLUcontrol)×100%. The value of IC50 was calculated by fitting a gradiently diluted concentration of the compound and the corresponding cell proliferation inhibition rate using a four-parameter method.

The mark [5] stands for this setting: Homo sapiens, MIA PaCa-2, 2 h, MIA PaCa2 cells, 2 hours with compound, read-out: p-ERK IC50.
Where [6] appears, read: Homo sapiens, MIA PaCa-2, 120 h.
[7] abbreviates: MIA PaCa2 cells, 2 hours with compound, read-out: p-ERK IC50.

For 16 molecules, IC50 results are on record in US12054497B2, “Substituted heterocyclic fused cyclic compound, preparation method therefor and pharmaceutical use thereof” (GENFLEET THERAPEUTICS (SHANGHAI) INC., priority 2019, dated 2024).

Each structure is given as a SMILES string. Where two headings read alike, the source gives them in different places.

What is called IC50 is the concentration that gives 50% inhibition. On to `C=CC(=O)N1CCN2c3c(c(=O)n(-c4c(C)ccnc4C(C)C)c4nc(-c5c(O)cccc5F)c(Cl)cc34)NC(=O)[C@H]2C1` [Compound Z24, (4aR)-3-acryloyl-11-chloro-10-(2-fluoro-6-hydroxyphenyl)-8-(2-isopropyl-4-methylpyridin-3-yl)-2,3,4,4a,6,8-hexahydro-1H-pyrazino[1′,2′:4,5]pyrazino[2,3-c][1,8]naphthyridin-5,7-dione], for which the IC50 in test [1] (setting [5]) came out at 113 nM; in test [2] (Homo sapiens, A549, 120 h), 28100 nM; in test [3] (Homo sapiens, NCI-H358, 120 h), 3 nM; in test [4] (setting [6]) it was 9 nM; on KRas G12C, 58 nM.
In the case of `C=CC(=O)N1CCN2c3c(c(=O)n(-c4c(C)ccnc4C(C)C)c4nc(-c5c(O)cccc5F)c(Cl)cc34)NC(=O)[C@H]2C1` (single isomer, unassigned) [Compound Z24-1], the IC50 was 536 nM in test [1] (setting [7]), above 30000 nM in test [2], 28 nM in test [3] and 291 nM at KRas G12C.
As for `C=CC(=O)N1C[C@@H]2C(=O)N(C)c3c(c4cc(F)c(-c5c(O)cccc5F)nc4n(-c4c(C#N)cccc4C(C)C)c3=O)N2C[C@H]1C` (atropisomer, axis not shown) [Compound Z38-1, 2-((2R,4aR)-3-acryloyl-11-fluoro-10-(2-fluoro-6-hydroxyphenyl)-2,6-dimethyl-5,7-dioxo-2,3,4,4a,5,6-hexahydro-1H-pyrazino[1′,2′:4,5]pyrazino[2,3-c][1,8]naphthyridin-8(7H)-yl)-3-isopropylbenzonitrile], the IC50 in test [1] (setting [7]) is 212 nM; in test [2] it was above 30000 nM; in test [3] it was 7 nM; in test [4], 27 nM; on KRas G12C it was 53 nM.
On to `C=CC(=O)N1C[C@@H]2C(=O)N(C)c3c(c4cc(F)c(-c5c(O)cccc5F)nc4n(-c4c(C)ccnc4C(C)C)c3=O)N2C[C@H]1C` [Compound Z10, (2R,4aR)-3-acryloyl-11-fluoro-10-(2-fluoro-6-hydroxyphenyl)-8-(2-isopropyl-4-methylpyridin-3-yl)-2,6-dimethyl-2,3,4,4a,6-hexahydro-1H-pyrazino[1′,2′:4,5]pyrazino[2,3-c][1,8,8]naphthyridin-5-dione], for which the IC50 turned out to be 75 nM in test [1] (setting [5]); 12100 nM in test [2] (Homo sapiens, A549, 120 h); 8 nM in test [3] (Homo sapiens, NCI-H358, 120 h); 67 nM on KRas G12C.
Regarding `C=CC(=O)N1CCN2c3c(c(=O)n(-c4c(C(C)C)ccnc4C(C)C)c4c(F)c(-c5c(O)cccc5F)c(Cl)cc34)N(C)C(=O)[C@H]2C1` [Compound Z37], the concentration for half-maximal inhibition (IC50) stood at 21 nM in test [1] (setting [5]); 8570 nM in test [2] (Homo sapiens, A549, 120 h); 1 nM in test [3] (Homo sapiens, NCI-H358, 120 h); 4 nM in test [4] (setting [6]); 20 nM at KRas G12C.
`C=CC(=O)N1C[C@@H]2C(=O)N(C)c3c(c4cc(F)c(-c5c(O)cccc5F)nc4n(-c4c(C)ccnc4C(C)C)c3=O)N2C[C@H]1C` (single isomer, unassigned) [Compound Z10-1]: the IC50 in test [1] (setting [7]) is 460 nM; in test [2], above 10000 nM; in test [3], 70 nM; on KRas G12C, 708 nM.
`C=CC(=O)N1CCN2c3c(c(=O)n(-c4c(C)ncnc4C(C)C)c4nc(-c5c(O)cccc5F)c(F)cc34)N(C)C(=O)[C@H]2C1` (single isomer, unassigned) [Compound Z21-1]: the IC50 in test [1] (setting [7]) is 428 nM; in test [2], above 30000 nM; in test [3], 27 nM; in test [4] it was 46 nM; on KRas G12C, 172 nM.
Turning to `C=CC(=O)N1C[C@@H]2C(=O)N(C)c3c(c4cc(F)c(-c5c(O)cccc5F)nc4n(-c4c(C)cnn4C(C)C)c3=O)N2C[C@H]1C` (single isomer, unassigned) [Compound Z33-1], the IC50 in test [2] was above 30000 nM; in test [3], 74 nM; in test [4] (setting [6]), 92 nM; on KRas G12C, 515 nM.
On to `C=CC(=O)N1CCN2c3c(c(=O)n(-c4c(C)ccnc4C(C)C)c4nc(-c5c(O)cccc5F)c(Cl)cc34)NC(=O)[C@H]2C1` (single isomer, unassigned) [Compound Z24-2], for which the IC50 was 61 nM in test [1] (setting [7]); 11300 nM in test [2]; 3 nM in test [3]; 4 nM in test [4] (setting [6]); 38 nM on KRas G12C.
`C=CC(=O)N1C[C@@H]2C(=O)N(C)c3c(c4cc(F)c(-c5c(O)cccc5F)nc4n(-c4c(C)cnn4C(C)C)c3=O)N2C[C@H]1C` (single isomer, unassigned) [Compound Z33-2]: the IC50 was 238 nM in test [1] (setting [5]); above 30000 nM in test [2] (Homo sapiens, A549, 120 h); 34 nM in test [3]; 48 nM in test [4]; 162 nM on KRas G12C.
With `[2H]C([2H])([2H])N1C(=O)[C@H]2CN(C(=O)C=C)CCN2c2c1c(=O)n(-c1c(C)ccnc1C(C)C)c1nc(-c3c(O)cccc3F)c(Cl)cc21` [Compound Z26, (4aR)-3-acryloyl-11-chloro-10-(2-fluoro-6-hydroxyphenyl)-8-(2-isopropyl-4-methylpyridin-3-yl)-6-(methyl-d3)-2,3,4,4a,6,8-hexahydro-1H-pyrazino[1′,2′:4,5]pyrazino[2,3-c][1,8]naphthyridin-5,7-dione], the IC50 in test [1] (Homo sapiens, MIA PaCa-2, 2 h, read-out: p-ERK IC50, MIA PaCa2 cells, 2 hours with compound) was 39 nM; in test [2], 12900 nM; in test [3], 2 nM; in test [4] (Homo sapiens, 120 h) it was 5 nM; at KRas G12C, 34 nM.
Turning to `C=CC(=O)N1C[C@@H]2C(=O)N(C)c3c(c4cc(Cl)c(-c5c(O)cccc5F)c(F)c4n(-c4c(C(C)C)ncnc4C(C)C)c3=O)N2C[C@H]1C` (single isomer, unassigned) [Compound Z50-2], the IC50 in test [1] (setting [7]) amounted to 316 nM; in test [2] it was 3870 nM; in test [3], 320 nM; at KRas G12C, 1450 nM.
In the case of `C=CC(=O)N1CCN2c3c(c(=O)n(-c4c(C)ccnc4C(C)C)c4nc(-c5c(O)cccc5F)c(F)cc34)N(C)C(=O)[C@H]2C1` (single isomer, unassigned) [Compound Z9-1], the IC50 in test [2] (Homo sapiens, A549, 120 h) is above 10000 nM; in test [3], 218 nM; on KRas G12C, 2570 nM.
On to `C=CC(=O)N1C[C@@H]2C(=O)N(C)c3c(c4cc(Cl)c(-c5c(O)cccc5F)nc4n(-c4c(C)ccnc4C(C)C)c3=O)N2C[C@H]1C` (single isomer, unassigned) [Compound Z27-1], for which the IC50 in test [1] (setting [7]) was 157 nM; in test [2] (Homo sapiens, A549, 120 h), 12700 nM; in test [3], 12 nM; at KRas G12C, 198 nM.
`[2H]C([2H])([2H])N1C(=O)[C@H]2CN(C(=O)C=C)CCN2c2c1c(=O)n(-c1c(C)ccnc1C(C)C)c1nc(-c3c(O)cccc3F)c(Cl)cc21` (single isomer, unassigned) [Compound Z26-1]: the IC50 in test [2] was above 30000 nM; in test [3], 42 nM; on KRas G12C, 868 nM.
As for `C=CC(=O)N1CCN2c3c(c(=O)n(-c4c(C)ncnc4C(C)C)c4nc(-c5c(O)cccc5F)c(F)cc34)N(C)C(=O)[C@H]2C1` (single isomer, unassigned) [Compound Z21-2], the IC50 in test [2] is above 30000 nM; in test [3] it was 407 nM; on KRas G12C it was 3940 nM.
